From patent US6110965A, “Ketolides from the class of 15-membered lactams” (PLIVA, farmaceutska, kemijska, prehrambena i kozmeticka …, priority 1998, dated 2000)
In brackets after ≈: the same amount, converted by molar mass. Where two headings read alike, the source gives them in different places.

Key:
[1] = tested on: Proteus mirabilis ATCC 43071; assay: Antibacterial in vitro action (MIC), microdilution process according to NCCLS; format: cell-based
[2] = tested on: Pseudomonas aeruginosa ATCC 25619; assay: as above; format: cell-based
[3] = tested on: Yersinia enterocolitica ATCC 9610; assay: as above; format: cell-based
[4] = tested on: Shigella flexneri ATCC 12022; assay: as above; format: cell-based; conditions: ATCC12022, read-out: Antibacterial in vitro action (MIC, mg/l)
Protocol: Antibacterial in vitro action of the new compounds of the general formula (I), wherein A, B, R^1, R^2 and R^3 have the above-mentioned meanings, and of their pharmaceutically acceptable addition salts with inorganic or organic acids was determined on a series of standard test microorganisms and clinical isolates by microdilution process according to the protocol NCCLS (The National Commitee for Clinical Laboratory Standards, Document M7-A2, Vol. 10, No. 8, 1990 and Document M11-A2, Vol. 10, 15,1991). The control of the laboratory process was performed by means of control strain Staphyloccocus aureus ATTC 29213 (The American Type Culture Collection) according to protocol NCCLS (Document M7-A2, Table 3, M100-S4).
The antibacterial in vitro action on a series of standard test microorganisms for 6-O-methyl-8a-aza-8a-homoerythromycin A from Example 3 in comparison with azithromycin, erythromycin and clarithromycin is represented in Table 1.

[5] = tested on: Citroobacter freundii ATCC 8090; assay: as above; format: cell-based; conditions: read-out: Antibacterial in vitro action (MIC, mg/l)
[6] = tested on: Campylobacter fetus ATCC 19438; assay: as above; format: cell-based
[7] = tested on: Haemophilus influenzae ATCC 49247; assay: as above; format: cell-based
[8] = tested on: Salmonella choleraesuis ATCC 13076; assay: as above; format: cell-based; conditions: Salmonella enterica, read-out: Antibacterial in vitro action (MIC, mg/l)
[9] = tested on: Moraxella catarrhalis ATCC 25238; assay: as above; format: cell-based
[10] = tested on: Listeria monocytogenes ATCC 7644; assay: as above; format: cell-based
[11] = tested on: Enterococcus faecalis ATCC 35550; assay: as above; format: cell-based
[12] = tested on: Clostridium perfringens ATCC 13124; assay: microbe, parasite or virus in culture; format: cell-based; conditions: ATCC13124, read-out: Antibacterial in vitro action (MIC, mg/l)
[13] = tested on: Campylobacter jejuni ATCC 33291; assay: Antibacterial in vitro action (MIC), microdilution process according to NCCLS; format: cell-based
[14] = tested on: Staphylococcus aureus ATCC 25923; assay: as above; format: cell-based
[15] = tested on: Proteus mirabilis ATCC 12453; assay: as above; format: cell-based
[16] = tested on: Staphylococcus epidermidis ATCC 12228; assay: as above; format: cell-based
[17] = tested on: Streptococcus pneumoniae ATCC 6305; assay: as above; format: cell-based
[18] = tested on: Streptococcus pyogenes ATCC 19615; assay: as above; format: cell-based
[19] = compared to erythromycin A; cited from earlier work
[20] = tested on: Haemophilus influenzae ATCC 49766; assay: Antibacterial in vitro action (MIC), microdilution process according to NCCLS; format: cell-based
[21] = tested on: gram-positive bacterial strains; conditions: compared to erythromycin A; cited from earlier work
[22] = tested on: Escherichia coli ATCC 25922; assay: Antibacterial in vitro action (MIC), microdilution process according to NCCLS; format: cell-based; conditions: ATCC25922, read-out: Antibacterial in vitro action (MIC, mg/l)
[23] = in vivo; cited from earlier work
gram-negative bacteria = conditions: cited from earlier work
human phagocyte cells = conditions: cited from earlier work
[24] = oral preparations; cited from earlier work
[25] = ATCC43071, Proteus mirabilis ATCC 43071, read-out: Antibacterial in vitro action (MIC, mg/l)
[26] = ATCC25619, Pseudomonas aeruginosa ATCC 25619, read-out: Antibacterial in vitro action (MIC, mg/l)
[27] = ATCC9610, Yersinia enterocolitica ATCC 9610, read-out: Antibacterial in vitro action (MIC, mg/l)
[28] = Citroobacter freundii ATCC 8090
[29] = Campylobacter fetus, ATCC19438, read-out: Antibacterial in vitro action (MIC, mg/l)
[30] = ATCC49247, Haemophilus influenzae ATCC 49247, read-out: Antibacterial in vitro action (MIC, mg/l)
[31] = Salmonella choleraesuis ATCC 13076
[32] = Moraxella catarrhalis, ATCC25238, read-out: Antibacterial in vitro action (MIC, mg/l)
[33] = Listeria monocytogenes, ATCC7644, read-out: Antibacterial in vitro action (MIC, mg/l)
[34] = ATCC35550, Enterococcus faecalis ATCC 35550, read-out: Antibacterial in vitro action (MIC, mg/l)
[35] = Campylobacter jejuni, ATCC33291, read-out: Antibacterial in vitro action (MIC, mg/l)
[36] = ATCC25923, Staphylococcus aureus ATCC 25923, read-out: Antibacterial in vitro action (MIC, mg/l)
[37] = ATCC12453, Proteus mirabilis ATCC 12453, read-out: Antibacterial in vitro action (MIC, mg/l)
[38] = ATCC12228, Staphylococcus epidermidis ATCC 12228, read-out: Antibacterial in vitro action (MIC, mg/l)
[39] = Streptococcus pneumoniae, ATCC6305, read-out: Antibacterial in vitro action (MIC, mg/l)
[40] = Streptococcus pyogenes, ATCC19615, read-out: Antibacterial in vitro action (MIC, mg/l)
[41] = ATCC49766, Haemophilus influenzae ATCC 49766, read-out: Antibacterial in vitro action (MIC, mg/l)

Row | SMILES | MIC [1, 25] [mg/L] | MIC [2, 26] [mg/L] | MIC [3, 27] [mg/L] | MIC [4] [mg/L] | MIC [5, 28] [mg/L] | MIC [6, 29] [mg/L] | MIC [7, 30] [mg/L] | MIC [8, 31] [mg/L] | MIC [9, 32] [mg/L] | MIC [10, 33] [mg/L] | MIC [11, 34] [mg/L] | MIC [12] [mg/L] | MIC [13, 35] [mg/L] | MIC [14, 36] [mg/L] | MIC [15, 37] [mg/L] | MIC [16, 38] [mg/L] | MIC [17, 39] [mg/L] | MIC [18, 40] [mg/L] | MIC [20, 41] [mg/L] | MIC [22] [mg/L] | also measured
1 | CC[C@H]1OC(=O)[C@H](C)[C@@H](O[C@H]2C[C@@](C)(OC)[C@@H](O)[C@H](C)O2)[C@H](C)[C@@H](O[C@@H]2O[C@H](C)C[C@H](N(C)C)[C@H]2O)[C@](C)(OC)C[C@@H](C)C(=O)[C@H](C)[C@@H](O)[C@]1(C)O [Cl, 6-O-methyl-erythromycin A] | > 128 | > 128 | 16 (≈ 21.4 µM) | 32 (≈ 42.8 µM) | 64 (≈ 85.6 µM) | < 0.125 | 4 (≈ 5.35 µM) | 32 (≈ 42.8 µM) | < 0.125 | < 0.125 | 0.25 (≈ 0.334 µM) | 0.125 (≈ 0.167 µM) | < 0.125 | 0.5 (≈ 0.668 µM) | 128 (≈ 171 µM) | 0.25 (≈ 0.334 µM) | < 0.125 | < 0.125 | 8 (≈ 10.7 µM) | 32 (≈ 42.8 µM) | stability in acidic medium [19]: considerably more stable in acidic medium; in vitro activity against gram-positive bacterial strains [21]: increased in vitro activity against gram-positive bacterial strains
2 | CC[C@H]1OC(=O)[C@H](C)[C@@H](O[C@H]2C[C@@](C)(OC)[C@@H](O)[C@H](C)O2)[C@H](C)[C@@H](O[C@@H]2O[C@H](C)C[C@H](N(C)C)[C@H]2O)[C@](C)(O)C[C@@H](C)CN(C)[C@H](C)[C@@H](O)[C@]1(C)O [Az, 9-deoxo-9a-methyl-9a-aza-9a-homoerythromycin A] | 64 (≈ 85.4 µM) | 64 (≈ 85.4 µM) | 1 (≈ 1.34 µM) | 1 (≈ 1.34 µM) | 4 (≈ 5.34 µM) | < 0.125 | 0.5 (≈ 0.668 µM) | 2 (≈ 2.67 µM) | < 0.125 | < 0.125 | 0.5 (≈ 0.668 µM) | 0.125 (≈ 0.167 µM) | < 0.125 | 0.5 (≈ 0.668 µM) | 64 (≈ 85.4 µM) | 1 (≈ 1.34 µM) | < 0.125 | < 0.125 | 1 (≈ 1.34 µM) | 2 (≈ 2.67 µM) | biological half-time [23]: long biological half-time; antimicrobial spectrum (gram-negative bacteria): broad antimicrobial spectrum including gram-negative bacteria; penetration and accumulation within human phagocyte cells (human phagocyte cells): able to penetrate and to accumulate within human phagocyte cells
3 | CC[C@H]1OC(=O)[C@H](C)[C@@H](O[C@H]2C[C@@](C)(OC)[C@@H](O)[C@H](C)O2)[C@H](C)[C@@H](O[C@@H]2O[C@H](C)C[C@H](N(C)C)[C@H]2O)[C@](C)(OC)C[C@@H](C)NC(=O)[C@H](C)[C@@H](O)[C@]1(C)O [Example 3, 6-O-methyl-8a-aza-8a-homoerythromycin A] | 32 (≈ 41.9 µM) | 32 (≈ 41.9 µM) | 4 (≈ 5.24 µM) | 4 (≈ 5.24 µM) | 16 (≈ 21 µM) | – | 1 (≈ 1.31 µM) | 8 (≈ 10.5 µM) | – | – | 1 (≈ 1.31 µM) | 0.25 (≈ 0.328 µM) | – | 0.5 (≈ 0.655 µM) | 32 (≈ 41.9 µM) | 0.5 (≈ 0.655 µM) | – | – | 1 (≈ 1.31 µM) | 8 (≈ 10.5 µM) | MIC ([6]; ATCC19438, Campylobacter fetus ATCC 19438, read-out: Antibacterial in vitro action (MIC, mg/l)): < 0.125 mg/L; MIC ([9]; ATCC25238, Moraxella catarrhalis ATCC 25238, read-out: Antibacterial in vitro action (MIC, mg/l)): < 0.125 mg/L; MIC ([10]; ATCC7644, Listeria monocytogenes ATCC 7644, read-out: Antibacterial in vitro action (MIC, mg/l)): < 0.125 mg/L; MIC ([13]; ATCC33291, Campylobacter jejuni ATCC 33291, read-out: Antibacterial in vitro action (MIC, mg/l)): < 0.125 mg/L; MIC ([17]; ATCC6305, Streptococcus pneumoniae ATCC 6305, read-out: Antibacterial in vitro action (MIC, mg/l)): < 0.125 mg/L; MIC ([18]; ATCC19615, Streptococcus pyogenes ATCC 19615, read-out: Antibacterial in vitro action (MIC, mg/l)): < 0.125 mg/L
4 | CC[C@H]1OC(=O)[C@H](C)[C@@H](O[C@H]2C[C@@](C)(OC)[C@@H](O)[C@H](C)O2)[C@H](C)[C@@H](O[C@@H]2O[C@H](C)C[C@H](N(C)C)[C@H]2O)[C@](C)(O)C[C@@H](C)C(=O)[C@H](C)[C@@H](O)[C@]1(C)O [Er, erythromycin A] | – | – | – | 32 (≈ 43.6 µM) | – | < 0.125 | – | – | < 0.125 | < 0.125 | – | 0.5 (≈ 0.681 µM) | < 0.125 | – | – | – | < 0.125 | < 0.125 | – | 32 (≈ 43.6 µM) | MIC ([1]; Proteus mirabilis, ATCC43071, read-out: Antibacterial in vitro action (MIC, mg/l)): > 128 mg/L; MIC ([2]; Pseudomonas aeruginosa, ATCC25619, read-out: Antibacterial in vitro action (MIC, mg/l)): > 128 mg/L; MIC ([3]; Yersinia enterocolitica, ATCC9610, read-out: Antibacterial in vitro action (MIC, mg/l)): 16 mg/L (≈ 21.8 µM); MIC [5]: 64 mg/L (≈ 87.2 µM); MIC ([7]; Haemophilus influenzae, ATCC49247, read-out: Antibacterial in vitro action (MIC, mg/l)): 2 mg/L (≈ 2.73 µM); MIC [8]: 64 mg/L (≈ 87.2 µM); MIC ([11]; Enterococcus faecalis, ATCC35550, read-out: Antibacterial in vitro action (MIC, mg/l)): 1 mg/L (≈ 1.36 µM); MIC ([14]; Staphylococcus aureus, ATCC25923, read-out: Antibacterial in vitro action (MIC, mg/l)): 0.25 mg/L (≈ 0.341 µM); MIC ([15]; Proteus mirabilis, ATCC12453, read-out: Antibacterial in vitro action (MIC, mg/l)): > 128 mg/L; MIC ([16]; Staphylococcus epidermidis, ATCC12228, read-out: Antibacterial in vitro action (MIC, mg/l)): 0.25 mg/L (≈ 0.341 µM); MIC ([20]; Haemophilus influenzae, ATCC49766, read-out: Antibacterial in vitro action (MIC, mg/l)): 4 mg/L (≈ 5.45 µM); gastric intolerance [24]: gastric intolerance in many patients
